According to patent US7381698B2, “Methods for treatment of acute pancreatitis” (ChiRhoClin, Inc., priority 2003, dated 2008):
Where no end group is shown, it is not given here.

Legend:
[1] = tested on: post-ERCP pancreatitis in patients undergoing ERCP; experiment: Randomized, double-blind, placebo controlled study in ERCP patients: incidence and severity of post-ERCP pancreatitis; type: in vivo, human
Source text: Pancreatitis is the most common medically significant complication following Endoscopic Retrograde Cholangio-Pancreatography ([…]) procedures. The symptoms and pathophysiology of post-ERCP pancreatitis and acute pancreatitis are identical, and patients at risk for postERCP pancreatitis or suffering early signs of the condition provide good data for evaluation of therapies for acute pancreatitis. An evaluation of the clinical efficacy of dosages of secretin to treat or prevent the onset of pancreatitis in patients undergoing ERCP is described below.
A total of 979 ERCP patients were randomized, received study drug and were evaluable for efficacy. The demographic profiles of the patients who were randomized and received treatment with study drug by treatment group are summarized in Table 1.
The primary efficacy variable was the overall incidence of post-ERCP pancreatitis.
The difference in the incidence of post-ERCP pancreatitis between the two treatment groups in favor of the sPS treated patients was highly significant. The p-value of 0.0161 was sufficient to allow the study to be discontinued on the basis of the planned interim analysis of approximately 1,000 evaluable patients. The severity of the cases of post-ERCP pancreatitis, which did occur in each treatment group is depicted in Table 4 below.
The frequency of post-ERCP pancreatitis was evaluated in numerous patient sub-populations defined by the types of procedures performed during the ERCP.

patients undergoing ERCP = experiment: Return to pre-ERCP activity levels and return to work in ERCP patients; type: in vivo, human
Source text: Additional secondary efficacy variables assessed were return to baseline (pre-ERCP levels of activity) and the time in days to return of pre-ERCP activity levels. There was a small difference in the percentage of patients reporting return to baseline activity within the follow-up period (2 to 4 days post-ERCP) favoring the placebo group (p=0.0230) (49.78% vs. 42.09%). Interims of the mean number of days required to achieve pre-ERCP activity levels, was 0.6 (±1.0) for the sPS group and 0.7 (±0.9) for the placebo group. An attempt was made to obtain information on return to work. Relatively few data points were able to be collected, however, because a large percentage of patients were not working pre-ERCP (retired, too ill, etc.) among the 185 patients (95 in the sPS group and 90 in the placebo group) providing relevant responses for this variable, 46.32% of sPS patients and 50.00% of placebo patients reported returning to work within the follow-up period.

[2] = number of cases (% of 44 pancreatitis cases), N = 488/44

## synthetic porcine secretin (HSDGTFTSELSRLRDSARLQRLLQGLV; not fully specified; ends and bridges not checked; UniProt P63298 33-59, looked up) [SPS, Study drug; abbreviation not defined]
[1]; [2]
  Post-ERCP Pancreatitis Severity Rating (%): Severe: 1 (2.27) %
  Post-ERCP Pancreatitis Severity Rating (%): Unknown: 7 (15.91) %
[1]; number of cases (% of 44 pancreatitis cases), N = 488/44, overall p 0.6278
  Post-ERCP Pancreatitis Severity Rating (%): Total: 44 (100.0) %
[1]; number of cases (% of 44 pancreatitis cases), N = 488/44, p 0.117
  Post-ERCP Pancreatitis Severity Rating (%): Moderate: 9 (20.45) %
[1]; number of cases (% of 44 pancreatitis cases), N = 488/44, p 0.289
  Post-ERCP Pancreatitis Severity Rating (%): Minimal: 13 (29.55) %
[1]; number of cases (% of 44 pancreatitis cases), N = 488/44, p 0.590
  Post-ERCP Pancreatitis Severity Rating (%): Mild: 14 (31.82) %
[1]; number of patients (%), N = 488
  Overall Incidence of Post-ERCP Pancreatitis, No (%): 444 (90.98) %
[1]; number of patients (%), N = 488, p 0.0161 vs placebo, Fisher Exact Test
  Overall Incidence of Post-ERCP Pancreatitis, Yes (%): 44 (9.02) %
[1]; sub-population Cannulation of CBD, N = 361
  Incidence of Post-ERCP Pancreatitis, No (%): 334 (92.52) %
[1]; sub-population Cannulation of CBD, N = 361, p 0.0010
  Incidence of Post-ERCP Pancreatitis, Yes (%): 27 (7.48) %
[1]; sub-population Cannulation of Pancreatic Duct, N = 220
  Incidence of Post-ERCP Pancreatitis, No (%): 190 (86.36) %
[1]; sub-population Cannulation of Pancreatic Duct, N = 220, p 0.1237
  Incidence of Post-ERCP Pancreatitis, Yes (%): 30 (13.64) %
[1]; sub-population Manometry of CBD, N = 19
  Incidence of Post-ERCP Pancreatitis, No (%): 15 (78.95) %
[1]; sub-population Manometry of CBD, N = 19, p 0.0819
  Incidence of Post-ERCP Pancreatitis, Yes (%): 4 (21.05) %
[1]; sub-population Manometry of CBD, N = 19, p 0.0819, listed as sPS
  Incidence of Post-ERCP Pancreatitis, Yes (%): 21.05%
[1]; sub-population Manometry of Pancreatic Duct, N = 11
  Incidence of Post-ERCP Pancreatitis, No (%): 6 (54.58) %
[1]; sub-population Manometry of Pancreatic Duct, N = 11, p 0.3665
  Incidence of Post-ERCP Pancreatitis, Yes (%): 5 (45.45) %
[1]; sub-population Sphincterotomy of CBD, N = 140
  Incidence of Post-ERCP Pancreatitis, No (%): 133 (95.00) %
[1]; sub-population Sphincterotomy of CBD, N = 140, p 0.0001
  Incidence of Post-ERCP Pancreatitis, Yes (%): 7 (5.00) %
[1]; sub-population Sphincterotomy of Pancreatic Duct, N = 26
  Incidence of Post-ERCP Pancreatitis, No (%): 14 (57.85) %
[1]; sub-population Sphincterotomy of Pancreatic Duct, N = 26, p 0.1666
  Incidence of Post-ERCP Pancreatitis, Yes (%): 12 (46.15) %
[1]; sub-population Stent Insertion into CBD, N = 108
  Incidence of Post-ERCP Pancreatitis, No (%): 105 (97.22) %
[1]; sub-population Stent Insertion into CBD, N = 108, p 0.0856
  Incidence of Post-ERCP Pancreatitis, Yes (%): 3 (2.78) %
[1]; sub-population Stent Insertion into CBD, N = 108, p 0.0856, listed as sPS
  Incidence of Post-ERCP Pancreatitis, Yes (%): 2.78%
[1]; sub-population Stent Insertion into Pancreatic Duct, N = 23
  Incidence of Post-ERCP Pancreatitis, No (%): 18 (78.26) %
[1]; sub-population Stent Insertion into Pancreatic Duct, N = 23, p 1.0000
  Incidence of Post-ERCP Pancreatitis, Yes (%): 5 (21.74) %
[1]; sub-population Stent Insertion into Pancreatic Duct, N = 23, p 1.0000, listed as sPS
  Incidence of Post-ERCP Pancreatitis, Yes (%): 21.7%
[1]; sub-population Stent Removal from CBD, N = 58
  Incidence of Post-ERCP Pancreatitis, No (%): 57 (98.28) %
[1]; sub-population Stent Removal from CBD, N = 58, p 0.6185
  Incidence of Post-ERCP Pancreatitis, Yes (%): 1 (1.72) %
[1]; sub-population Stent Removal from Pancreatic Duct, N = 17
  Incidence of Post-ERCP Pancreatitis, No (%): 15 (88.24) %
[1]; sub-population Stent Removal from Pancreatic Duct, N = 17, p 1.0000
  Incidence of Post-ERCP Pancreatitis, Yes (%): 2 (11.76) %
[1]; sub-population Stone Extraction (Balloon), N = 55
  Incidence of Post-ERCP Pancreatitis, No (%): 51 (92.73) %
[1]; sub-population Stone Extraction (Balloon), N = 55, p 1.0000
  Incidence of Post-ERCP Pancreatitis, Yes (%): 4 (7.27) %
[1]; sub-population Stone Extraction (Basket), N = 35
  Incidence of Post-ERCP Pancreatitis, No (%): 34 (97.14) %
[1]; sub-population Stone Extraction (Basket), N = 35, p 0.2298
  Incidence of Post-ERCP Pancreatitis, Yes (%): 1 (2.86) %
Patients undergoing ERCP; mean (±SD)
  mean number of days required to achieve pre-ERCP activity levels: 0.6 (±1.0) days
Patients undergoing ERCP; within the follow-up period, 95 patients in the sPS group, not significant
  patients reporting returning to work: 46.32%
